The values below are quoted from earlier work in patent US10773008B2, “Medicated patch for preventing exit site infections during peritoneal dialysis” (Universiti Brunei Darussalam, priority 2016, dated 2020).

The conditions of data set [1]: topical mupirocin.
The conditions of data set [2]: in vivo.
Assay in data set [3]: not given
The source holds these as a separate data set.

Turning to `C/C(=C\C(=O)OCCCCCCCCC(=O)O)C[C@@H]1OC[C@H](C[C@@H]2O[C@H]2[C@@H](C)[C@H](C)O)[C@@H](O)[C@H]1O` [mupirocin], the “log P” value was 2.45. In addition, the bioavailability in data set [1] was 0.24%. For the same compound, in data set [2], the half-life was 20 to 40 min. In addition, the PKa in data set [3] is 4.83.

Usually bioavailability stands for the share of a dose that reaches the circulation, judged against a reference dose that is usually intravenous. As a reminder, the half-life is the time needed for the level to fall by half in the phase considered. The term log P denotes the decadic logarithm of the partition coefficient of the neutral form, usually between octanol and water.
